These results are taken from patent US10900063B2, “Measurement of Lp-PLA2 activity” (ASAHI KASEI PHARMA CORPORATION, priority 2016, dated 2021).

Test [1] has as its target T1, rLp-PLA2 (Homo sapiens, UniProt Q13093, I42M).
T1 construct: histidine tag (from vector pET-19b) (N); made in house; host or cells: E. coli BL21(DE3), plasmid Lp-PLA2/pET-19b
T1 sequence (Q13093 42-441 I42M): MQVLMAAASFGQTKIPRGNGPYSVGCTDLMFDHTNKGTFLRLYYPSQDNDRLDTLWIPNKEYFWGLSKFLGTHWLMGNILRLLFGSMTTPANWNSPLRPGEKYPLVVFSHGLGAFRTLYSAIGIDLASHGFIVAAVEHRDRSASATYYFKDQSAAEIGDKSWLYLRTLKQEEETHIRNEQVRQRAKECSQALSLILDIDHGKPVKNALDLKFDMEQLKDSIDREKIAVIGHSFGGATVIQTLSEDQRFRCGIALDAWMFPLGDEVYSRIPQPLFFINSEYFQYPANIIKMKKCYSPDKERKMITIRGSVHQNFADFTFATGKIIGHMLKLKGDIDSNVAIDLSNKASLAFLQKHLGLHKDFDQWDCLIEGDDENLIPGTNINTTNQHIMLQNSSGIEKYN
The experiment in a line: Lp-PLA2 activity measurement with reagents of the invention, recombinant Lp-PLA2 as sample. The class given is biochemical. Particulars: Example 9, sample rLp-PLA2 (0.017 mg/mL); for Lp-PLA2 activity value / absorbance change per minute (sensitivity): 10 mM substrate in R2; for Relative activity: PAF(C16) = 100. As to the method:
The recombinant Lp-PLA2 (rLp-PLA2) used in these examples was prepared in accordance with Reference Examples 4 to 6 based on the information disclosed in J. Biol. Chem., Oct. 27, 1995, No. 43, Vol. 270, pp. 25481-25487.
A gene optimized for E. coli (matched to E. coli codon usage) was synthesized (GenScript (NJ, USA)) based on the sequence data for a human Lp-PLA2 gene. Using the synthesized DNA as a template, a roughly 1200 bp PCR product was obtained by PCR using KOD FX (Toyobo Co., Ltd.) using as the sense primer the nucleotide sequence of SEQ ID NO: 5 in which the 42nd isoleucine was changed to the sequence of the initial methionine, with the nucleotide sequence of SEQ ID NO: 6 as the antisense primer. The resulting PCR product was digested with NdeI (Takara Bio Inc.) and BamHI (Takara Bio Inc.), and inserted into the NdeI-BamHI site of the expression vector pET-19b (Novagen) to obtain an Lp-PLA2/pET-19b expression plasmid. This expression plasmid was transformed into One shot BL21(DE3) Chemically Competent E. coli, to obtain a transformant called Lp-PLA2/pET-19b/BL21(DE3) comprising a recombinant vector containing a polynucleotide consisting of a nucleotide sequence encoding Lp-PLA2 with a histidine tag from the vector added at the N-terminus.
(§1) 5 μL of sample was mixed with 150 μL of the R1 reagent, and incubated for 5 minutes at 37° C. (measuring points 1 to 15), after which 100 μL of the R2 reagent was added to initiate a reaction (measuring point 16). The absorbance of water (blank) at the same measuring points was subtracted from the absorbance of the sample about 3.5 to 4.5 minutes after the reaction was initiated by addition of the R2 reagent (measuring points 27 to 30) to calculate the absorbance change per minute (ΔmAbs/min), and the Lp-PLA2 activity value (nmol/min/mL) was calculated according to the previous formula. The values for absorbance change per minute (sensitivity) (ΔmAbs/min) and Lp-PLA2 activity (nmol/min/mL) and the relative activity for each substrate given 100 as the Lp-PLA2 activity value for PAF(C16) are shown in Tables 19 to 24.

The target in test [2] is T2, Lp-PLA2 (Homo sapiens, UniProt Q13093).
T2 construct: Individual serum No. 16, individual serum No. 78; from tissue; host or cells: serum and plasma (individual sera, pooled sera, heparin and citrated pooled plasma)
T2 sequence (Q13093 22-441): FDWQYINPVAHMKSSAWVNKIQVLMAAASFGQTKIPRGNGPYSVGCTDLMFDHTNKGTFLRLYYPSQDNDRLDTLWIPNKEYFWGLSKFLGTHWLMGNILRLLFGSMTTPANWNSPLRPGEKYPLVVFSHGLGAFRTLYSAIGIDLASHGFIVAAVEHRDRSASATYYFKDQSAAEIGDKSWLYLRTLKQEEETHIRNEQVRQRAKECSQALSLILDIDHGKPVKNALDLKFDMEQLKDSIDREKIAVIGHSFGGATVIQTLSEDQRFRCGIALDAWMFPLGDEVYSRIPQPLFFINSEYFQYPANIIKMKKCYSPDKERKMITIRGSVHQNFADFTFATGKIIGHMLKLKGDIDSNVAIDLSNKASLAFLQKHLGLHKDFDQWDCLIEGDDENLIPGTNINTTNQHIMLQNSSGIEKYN
Nature of the test: Lp-PLA2 activity measurement in serum/plasma with reagents of the invention (PAF substrate, lyso-PAF-PLD, choline oxidase, peroxidase colorimetry). Particulars: Example 9; for Lp-PLA2 activity value / absorbance change per minute (sensitivity): 10 mM substrate in R2; for Relative activity: PAF(C16) = 100. Format: biochemical. On the procedure: Unless otherwise specified, in these examples the Method 1 described under 1) below is used for calculating Lp-PLA2 activity values. In these examples, (nmol/min/mL) is sometimes expressed as (U/L).
This is calculated by the following formula based on the absorbance change per minute (ΔmAbs/min) as calculated from absorbance at the measuring points and the millimolar extinction coefficient (ε=36) of TODB at 546 nm.
4 μL of the sample was mixed with 160 μL of the R1 reagent, and incubated for 5 minutes at 37° C. (measuring points 1 to 16), after which 40 μL of the R2 reagent was added to initiate a reaction (measuring point 17). The absorbance of water (blank) at the same measuring points was subtracted from the absorbance of the sample about 3.6 to 4.5 minutes after the reaction was initiated by addition of the R2 reagent (measuring points 30 to 33) to calculate the absorbance change per minute (ΔmAbs/min), and the Lp-PLA2 activity value (nmol/min/mL) was calculated according to the previous formula.
[…] was mixed with 150 μL of the R1 reagent, and incubated for 5 minutes at 37° C. (measuring points 1 to 15), after which 100 μL of the R2 reagent was added to initiate a reaction (measuring point 16). The absorbance of water (blank) at the same measuring points was subtracted from the absorbance of the sample about 2 to 3 minutes after the reaction was initiated by addition of the R2 reagent (measuring points 23 to 26) to calculate the absorbance change per minute (ΔmAbs/min), and the Lp-PLA2 activity value (nmol/min/mL) was calculated according to the previous formula. The values for absorbance change per minute (sensitivity) (ΔmAbs/min) and the Lp-PLA2 activity values (nmol/min/mL) at each pH are shown in Tables 1 and 2.
as §1
Each sample was mixed with 160 μL of the R1 reagent, and incubated for 5 minutes at 37° C., (measuring points 1 to 15), after which 40 μL of the R2 reagent was added to initiate the reaction (measuring point 16). The absorbance of water (blank) at the same measuring points was subtracted from the absorbance of the sample about 3.5 to 4.5 minutes after the reaction was initiated by addition of the R2 reagent (measuring points 27 to 30) to calculate the absorbance change per minute (ΔmAbs/min), and the Lp-PLA2 activity value (nmol/min/mL) was calculated according to the previous formula. […]
(measuring points 1 to 16), after which 100 μL of the R2 reagent was added to initiate a reaction (measuring point 17). The absorbance of water (blank) at the same measuring points was subtracted from the absorbance of the sample about 3.5 to 4.5 minutes after the reaction was initiated by addition of the R2 reagent (measuring points 29 to 32) to calculate the absorbance change per minute (ΔmAbs/min), and the Lp-PLA2 activity value (nmol/min/mL) was calculated according to the previous formula.

Consider `CCCCCCCCCCCCCCCCOC[C@H](COP(=O)([O-])OCC[N+](C)(C)C)OC(C)=O` [PAF(C16), 1-O-Hexadecyl-2-acetyl-sn-glycero-3-phosphocholine], for which the Lp-PLA2 activity value in test [1] was 132.3 nmol/min/mL; in test [2] (sample Citrated pooled plasma) it was 33.3 nmol/min/mL; in test [2] (sample Heparin pooled plasma), 44.3 nmol/min/mL; in test [2] (sample Individual serum 16), 94.8 nmol/min/mL; in test [2] (sample Pooled serum C), 40.8 nmol/min/mL; in test [2] (sample Pooled serum J042), 40.8 nmol/min/mL. The “absorbance change per minute (sensitivity)” value (“absorbance change per minute” for short) is on record as 93.4 ΔmAbs/min in test [1]; 23.5 ΔmAbs/min in test [2] (sample Citrated pooled plasma); 31.3 ΔmAbs/min in test [2] (sample Heparin pooled plasma); 66.9 ΔmAbs/min in test [2] (sample Individual serum 16); 28.8 ΔmAbs/min in test [2] (sample Pooled serum C); 28.8 ΔmAbs/min in test [2] (sample Pooled serum J042). The Relative activity in test [1], in test [2] (sample Citrated pooled plasma), in test [2] (sample Heparin pooled plasma), in test [2] (sample Individual serum 16), in test [2] (sample Pooled serum C) and in test [2] (sample Pooled serum J042) was 100% throughout.

`CCCCCCCCCCCCCCCC(=O)OC[C@H](COP(=O)([O-])OCC[N+](C)(C)C)OC(C)=O` [1-Palmitoyl-2-acetyl-sn-glycero-PC, 1-Palmitoyl-2-acetyl-sn-glycero-3-phosphocholine]: the Lp-PLA2 activity value in test [1] stood at 98.7 nmol/min/mL; in test [2] (sample Citrated pooled plasma), 34.4 nmol/min/mL; in test [2] (sample Heparin pooled plasma), 44.1 nmol/min/mL; in test [2] (sample Individual serum 16), 82.3 nmol/min/mL; in test [2] (sample Pooled serum C) it was 44.9 nmol/min/mL; in test [2] (sample Pooled serum J042), 45.2 nmol/min/mL. The “absorbance change per minute” value in test [1] is on record as 69.7 ΔmAbs/min; in test [2] (sample Citrated pooled plasma) it was 24.3 ΔmAbs/min; in test [2] (sample Heparin pooled plasma), 31.1 ΔmAbs/min; in test [2] (sample Individual serum 16) it was 58.1 ΔmAbs/min; in test [2] (sample Pooled serum C), 31.7 ΔmAbs/min; in test [2] (sample Pooled serum J042), 31.9 ΔmAbs/min. Further, the Relative activity in test [1] is 75%; in test [2] (sample Citrated pooled plasma), 103%; in test [2] (sample Heparin pooled plasma), 99%; in test [2] (sample Individual serum 16), 87%; in test [2] (sample Pooled serum C), 110%; in test [2] (sample Pooled serum J042), 111%.

For the compound `CCCCCCCCCCCCCCCCCCOC[C@H](COP(=O)([O-])OCC[N+](C)(C)C)OC(C)=O` [PAF(C18), 1-O-Octadecyl-2-acetyl-sn-glycero-3-phosphocholine], the Lp-PLA2 activity value in test [1] is listed as 74.1 nmol/min/mL; in test [2] (sample Citrated pooled plasma) it was 27.8 nmol/min/mL; in test [2] (sample Heparin pooled plasma), 38.7 nmol/min/mL; in test [2] (sample Individual serum 16), 79.3 nmol/min/mL; in test [2] (sample Pooled serum C), 35.6 nmol/min/mL; in test [2] (sample Pooled serum J042), 35.4 nmol/min/mL. Further, the “absorbance change per minute” value is 52.3 ΔmAbs/min in test [1]; 19.6 ΔmAbs/min in test [2] (sample Citrated pooled plasma); 27.3 ΔmAbs/min in test [2] (sample Heparin pooled plasma); 56.0 ΔmAbs/min in test [2] (sample Individual serum 16); 25.1 ΔmAbs/min in test [2] (sample Pooled serum C); 25.0 ΔmAbs/min in test [2] (sample Pooled serum J042). Besides, the Relative activity in test [1] stood at 56%; in test [2] (sample Citrated pooled plasma), 83%; in test [2] (sample Heparin pooled plasma), 87%; in test [2] (sample Individual serum 16), 84%; in test [2] (sample Pooled serum C), 87%; in test [2] (sample Pooled serum J042) it was 87%.
